This note sets out measurements from patent US8575153B2 (Kowa Company, Ltd., priority 2008, dated 2013).

Molecules are shown by their SMILES. Counter-ions that a name gives are not always drawn.

The target of one assay is Recombinant human JAK3 enzyme (JAK3 kinase region; Ala795-Ser1124) (Homo sapiens, UniProt P52333). Put plainly: JAK3 Kinase Assay (Kinase-Glo luminescent, ATP consumption). Conditions: read-out: Inhibition rate (%) of JAK3 kinase activity. Background: Kinase-Glo reads ATP consumption through a luciferase reaction.
Chain of Recombinant human JAK3 enzyme (JAK3 kinase region; Ala795-Ser1124) (P52333 795-1124): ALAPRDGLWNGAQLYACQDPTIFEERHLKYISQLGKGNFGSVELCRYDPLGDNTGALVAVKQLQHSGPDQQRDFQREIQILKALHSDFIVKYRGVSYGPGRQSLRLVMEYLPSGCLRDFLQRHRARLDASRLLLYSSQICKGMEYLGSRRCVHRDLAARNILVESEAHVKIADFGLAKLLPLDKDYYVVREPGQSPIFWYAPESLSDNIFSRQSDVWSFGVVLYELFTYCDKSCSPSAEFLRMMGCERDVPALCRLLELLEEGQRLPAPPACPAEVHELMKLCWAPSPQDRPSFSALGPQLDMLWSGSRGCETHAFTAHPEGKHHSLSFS
Turning to `CN1CCN(c2ccc(Nc3cc(NCc4ccccc4)c(C(N)=O)cn3)cc2)CC1` [Example 145, 4-(benzylamino)-6-{[4-(4-methylpiperazin-1-yl)phenyl]amino}pyridine-3-carboxyamide], the inhibition (as a rule, the change of the read-out against control, counted positive when it falls) at 0.1 µM worked out at 63%.

Consider `NC(=O)c1cnc(Nc2ccc(N3CCOCC3)cc2)cc1NCc1c(F)cccc1F` [Example 94, 4-[(2,6-difluorobenzyl)amino]-6-[(4-morpholinophenyl)amino]pyridine-3-carboxyamide], for which the inhibition at 0.1 µM was 96%.

Consider `NCCS(=O)(=O)Nc1ccc(Nc2cc(NCc3cc(F)cc(F)c3)c(C(N)=O)cn2)cc1` [Example 305, 6-[(4-{[(2-aminoethyl)sulfonyl]amino}phenyl)amino]-4-[(3,5-difluorobenzyl)amino]pyridine-3-carboxyamide], for which the inhibition at 0.1 µM is 77%.

As for `COc1ccc(F)cc1CNc1cc(Nc2ccc(N3CCOCC3)cc2)ncc1C(N)=O` [Example 99, 4-[(5-fluoro-2-methoxybenzyl)amino]-6-[(4-morpholinophenyl)amino]pyridine-3-carboxyamide], the inhibition at 0.1 µM came out at 80%.

For the molecule `NC(=O)c1cnc(Nc2ccc(NC(=O)C3CCNCC3)cc2)cc1NCc1cc(F)cc(F)c1` [Example 315, 4-[(3,5-difluorobenzyl)amino]-6-({4-[(piperidin-4-ylcarbonyl)amino]phenyl}amino)pyridine-3-carboxyamide hydrochloride], the inhibition at 0.1 µM was found to be 60%.

As for `CCN(CC)CCN1CCN(c2ccc(Nc3cc(NCc4cccc(F)c4F)c(C(N)=O)cn3)cc2)CC1` [Example 237, 6-[(4-{4-[2-(diethylamino)ethyl]piperazin-1-yl}phenyl)amino]-4-[(2,3-difluorobenzyl)amino]pyridine-3-carboxyamide], the inhibition at 0.1 µM was found to be 78%.

Take `CS(=O)(=O)N1CCN(c2ccc(Nc3cc(NCc4cc(F)cc(F)c4)c(C(N)=O)cn3)cc2)CC1` [Example 293, 4-[(3,5-difluorobenzyl)amino]-6-({4-[4-(methylsulfonyl)piperazin-1-yl]phenyl}amino)pyridine-3-carboxyamide]: the inhibition at 0.1 µM amounted to 61%.

In the case of `CC(C)NC(=O)N1CCN(c2ccc(Nc3cc(NCc4cccc([N+](=O)[O-])c4)c(C(N)=O)cn3)cc2)CC1` [Example 284, 4-[(3-nitrobenzyl)amino]-6-[(4-{[4-(propan-2-yl)carbamoyl]piperazin-1-yl}phenyl)amino]pyridine-3-carboxyamide], the inhibition at 0.1 µM was 63%.

In the case of `NC(=O)c1cnc(Nc2ccc(N3CCC(O)CC3)cc2)cc1NCc1ccccc1Cl` [Example 186, 4-[(2-chlorobenzyl)amino]-6-{[4-(4-hydroxypiperidino)phenyl]amino}pyridine-3-carboxyamide], the inhibition at 0.1 µM amounted to 93%.

`C[C@@H]1CN(c2cccc(Nc3cc(NCc4cc(F)cc(F)c4)c(C(N)=O)cn3)c2)C[C@H](C)N1` [Example 144, 4-[(3,5-difluorobenzyl)amino]-6-({3-[(3R,5S)-3,5-dimethylpiperazin-1-yl]phenyl}amino) pyridine-3-carboxyamide]: the inhibition at 0.1 µM is 61%.

In the case of `NC(=O)c1cnc(Nc2ccc(CN3CCOCC3)cc2)cc1NCc1ccccc1` [Example 318, 4-(benzylamino)-6-{[4-(morpholinomethyl)phenyl]amino}pyridine-3-carboxyamide], the inhibition at 0.1 µM was 83%.

For `N#CCC(=O)N1CCN(c2ccc(Nc3cc(NCc4cc(F)cc(F)c4)c(C(N)=O)cn3)cc2)CC1` [Example 264, 6-({4-[4-(cyanoacetyl)piperazin-1-yl]phenyl}amino)-4-[(3,5-difluorobenzyl)amino]pyridine-3-carboxyamide], the inhibition at 0.1 µM was found to be 92%.

As to `NC(=O)c1cnc(Nc2ccc(NC(=O)[C@@H]3CCCN3)cc2)cc1NCc1ccccc1` [Example 316, 4-(benzylamino)-6-({4-(L-prolylamino)phenyl]amino}pyridine-3-carboxyamide hydrochloride], the inhibition at 0.1 µM stood at 61%.

For the molecule `NC(=O)c1cnc(Nc2ccc(NCCN3CCOCC3)cc2)cc1NCc1ccccc1` [Example 70, 4-(benzylamino)-6-({4-[(2-morpholinoethyl)amino]phenyl}amino)pyridine-3-carboxyamide], the inhibition at 0.1 µM came to 75%.

On to `NC(=O)c1cnc(Nc2ccncc2)cc1NCc1ccccc1` [Example 372, 4-benzylamino-6-(pyridin-4-ylamino) pyridine-3-carboxyamide], for which the inhibition at 1 µM stood at 31%.

Regarding `C[C@@H]1CN(c2ccc(Nc3cc(NCc4cc(F)cc(F)c4)c(C(N)=O)cn3)cc2)C[C@H](C)N1` [Example 141, 4-[(3,5-difluorobenzyl)amino]-6-({4-[(3R,5S)-3,5-dimethylpiperazin-1-yl]phenyl}amino) pyridine-3-carboxyamide], the inhibition at 0.1 µM amounted to 83%.

For the molecule `COc1ccccc1CNc1cc(Nc2ccc(N3CCOCC3)cc2)ncc1C(N)=O` [Example 73, 4-[(2-methoxybenzyl)amino]-6-[(4-morpholinophenyl)amino]pyridine-3-carboxyamide], the inhibition at 0.1 µM worked out at 56%.

`NC(=O)c1cnc(Nc2ccc(N3CCCS3(=O)=O)cc2)cc1NCc1ccccc1` [Example 307, 4-(benzylamino)-6-{[4-(1,1-dioxo-1,2-thiazolidin-2-yl)phenyl]amino}pyridine-3-carboxyamide]: the inhibition at 0.1 µM was 71%.

As to `NC(=O)c1cnc(Nc2ccc(N3CCNCC3)cc2)cc1NCc1ccccc1` [Example 219], the inhibition at 0.1 µM was 65%.

Turning to `NC(=O)c1cnc(Nc2ccc(N3CCNCC3)cc2)cc1NCc1cccc([N+](=O)[O-])c1` [Example 224, 4-[(3-nitrobenzyl)amino]-6-{[4-(piperazin-1-yl)phenyl]amino}pyridine-3-carboxyamide], the inhibition at 0.1 µM is 68%.

`NC(=O)c1cnc(-c2c[nH]c3ncccc23)cc1NCc1cc(F)cc(F)c1` [Example 371, 4-[(3,5-difluorobenzyl)amino]-6-(1H-pyrrolo[2,3-b]pyridin-3-yl)pyridine-3-carboxyamide]: the inhibition at 1 µM stood at 42%.

In the case of `NC(=O)c1cnc(-n2cnc3ccccc32)cc1NCc1cc(F)cc(F)c1` [Example 365, 6-(1H-benzimidazol-1-yl)-4-[(3,5-difluorobenzyl)amino]pyridine-3-carboxyamide], the inhibition at 1 µM is 62%.

`NC(=O)c1cnc(Nc2ccc(C(=O)C(F)(F)F)cc2)cc1NCc1cc(F)cc(F)c1` [Example 326, 4-[(3,5-difluorobenzyl)amino]-6-{[(4-trifluoroacetyl)phenyl]amino}pyridine-3-carboxyamide]: the inhibition at 0.1 µM worked out at 71%.

For `CN1CCCN(c2ccc(Nc3cc(NCc4ccccc4)c(C(N)=O)cn3)cc2)CC1` [Example 244, 4-(benzylamino)-6-{[4-(4-methyl-1,4-diazepan-1-yl)phenyl]amino}pyridine-3-carboxyamide], the inhibition at 0.1 µM amounted to 59%.

On to `NC(=O)c1cnc(Nc2ccc(N3CCNCC3)cc2)cc1NCc1c(F)cccc1F` [Example 223, 4-[(2,6-difluorobenzyl)amino]-6-{[4-(piperazin-1-yl)phenyl]amino}pyridine-3-carboxyamide], for which the inhibition at 0.1 µM came out at 81%.

Turning to `CCN(CC)CCC1CCN(c2ccc(Nc3cc(NCc4ccccc4)c(C(N)=O)cn3)cc2)CC1` [Example 59, 4-(benzylamino)-6-[(4-{4-[2-(diethylamino)ethyl]piperidino}phenyl)amino]pyridine-3-carboxyamide], the inhibition at 0.1 µM came to 76%.

For `CCN(CC)CCN1CCN(c2ccc(Nc3cc(NCc4ccccc4)c(C(N)=O)cn3)cc2)CC1` [Example 236, 4-(benzylamino)-6-[(4-{4-[2-(diethylamino)ethyl]piperazin-1-yl}phenyl)amino]pyridine-3-carboxyamide], the inhibition at 0.1 µM was found to be 83%.

Turning to `CC1CCCCC1Nc1cc(Nc2ccc(N3CCOCC3)cc2)ncc1C(N)=O` (stereo not drawn) [Example 349, 4-[(2-methylcyclohexyl)amino]-6-[(4-morpholinophenyl)amino]pyridine-3-carboxyamide], the inhibition at 1 µM is 90%.

Turning to `CN1CCC(Oc2ccc(Nc3cc(NCc4ccccc4)c(C(N)=O)cn3)cc2)CC1` [Example 52, 4-(benzylamino)-6-({4-[(1-methylpiperidin-4-yl)oxy]phenyl}amino)pyridine-3-carboxyamide], the inhibition at 0.1 µM was 72%.

In the case of `NC(=O)c1cnc(Nc2ccc(N3CCC(CCO)CC3)cc2)cc1NCc1ccccc1` [Example 57, 4-(benzylamino)-6-({4-[4-(2-hydroxyethyl)piperidino]phenyl}amino)pyridine-3-carboxyamide], the inhibition at 0.1 µM stood at 89%.

As to `Cc1ccccc1CNc1cc(Nc2ccc(N3CCOCC3)cc2)ncc1C(N)=O` [Example 76, 4-[(2-methylbenzyl)amino]-6-[(4-morpholinophenyl)amino]pyridine-3-carboxyamide], the inhibition at 0.1 µM stood at 63%.

For `CN(CCN1CCOCC1)c1ccc(Nc2cc(NCc3ccccc3)c(C(N)=O)cn2)cc1` [Example 71, 4-(benzylamino)-6-({4-[methyl(2-morpholinoethyl)amino]phenyl}amino)pyridine-3-carboxyamide], the inhibition at 0.1 µM was 70%.

In the case of `C[C@@H]1CN(c2ccc(Nc3cc(NCc4cccc(F)c4F)c(C(N)=O)cn3)cc2)C[C@H](C)N1` [Example 140, 4-[(2,3-difluorobenzyl)amino]-6-({4-[(3R,5S)-3,5-dimethylpiperazin-1-yl]phenyl}amino)pyridine-3-carboxyamide], the inhibition at 0.1 µM was 62%.

Take `N#CCC(=O)N1CCCN(c2ccc(Nc3cc(NCc4ccccc4)c(C(N)=O)cn3)cc2)CC1` [Example 268, 4-(benzylamino)-6-({4-[4-(cyanoacetyl)-1,4-diazepan-1-yl]phenyl}amino)pyridine-3-carboxyamide]: the inhibition at 0.1 µM was determined as 65%.

Staying with this assay, now noted: test compound at 0.1 μM.
Turning to `CC(C)S(=O)(=O)N1CCN(c2cccc(Nc3cc(NCc4cc(F)cc(F)c4)c(C(N)=O)cn3)c2)CC1` [Example 174, 4-[(3,5-difluorobenzyl)amino]-6-({3-[4-(propan-2-ylsulfonyl)piperazin-1-yl]phenyl}amino) pyridine-3-carboxyamide], the “Inhibition rate (%) of JAK3 kinase activity” value was 58%.

`CS(=O)(=O)NCCCc1ccc(Nc2cc(NCc3cc(F)cc(F)c3)c(C(N)=O)cn2)cc1` [Example 202]: the “Inhibition rate (%) of JAK3 kinase activity” value is on record as 88%.
